In patent US20240252508A1, “Novel glucose uptake inhibitors for use in the treatment of cancer” (NOVELYEAST BV, priority 2021, published 2024):

Legend:
[1] = tested on: A549 lung adenocarcinoma cells; assay: A549 cell proliferation / growth inhibition; format: cell-based, human; conditions: for Selected from primary screen for growth inhibition of A549 cells at 50 μM: 50 μM compound, 1 mM glucose; for Selected for having an IC50 ratio (10 mM glucose: 1 mM glucose) of A549 growth higher than WBC-A: IC50 on 10 mM vs 1 mM glucose, compared with WBC-A
Description: The analog library (n=203) was screened for inhibition of growth of A549 cells on RPMI medium supplemented with 1 mM glucose. DMSO (green bar) and WBC-A (orange bar) served as negative and positive control, respectively. In addition, the reference glucose transport inhibitors STF-31, Fasentin, BAY-876, WZB-117 and Cytochalasin B were included and indicated in red. Compounds were added at 50 μM concentration. Number of cells was determined by counting nuclei stained by Hoechst after three days of growth.
For both adherent A549 and MCF10Δ H-RAS^V12 cell lines, growth curves were established using the IncuCyte® ZOOM technology. By collecting phase contrast images, the IncuCyte® software provides a calculated confluency percentage from which growth curves can be deducted.
Cells were seeded at a density of 1000-1500 cells/well in a Nunc-Edge™ 96-well plate (Thermo Fisher Scientific) and growth was typically measured over 3 to 5 days. For the measurement of apoptosis induction using the MCF10Δ H-RAS^V12 cell line, the IncuCyte® Caspase-3/7 green dye was added to the medium in the recommended concentration at the beginning of the growth curve experiment. Apoptosis was detected by taking fluorescent images by excitation at 488 nm followed by IncuCyte® software analysis. Cell growth of the KMS-12-PE multiple myeloma cell line, which grows in suspension, was measured by manual cell counting. Cells were initially seeded at a density of 10^4 cells/well and incubated for 4 days after which the cell number was counted. For all cell lines, the same medium used for pregrowth was also used for the growth curve experiment, albeit with different glucose concentrations depending on the experimental design. With compound administration, the final concentration of DMSO never exceeded 0.1%. Typically, at least four technical repeats were included per condition.

tps1Δ cells = assay: Growth rescue of tps1Δ strain on glucose (growth curves, 2% galactose medium); format: cell-based, S. cerevisiae; conditions: 100 μM compound, 2.5 mM glucose
Description: Growth curves were made by measuring OD595 in a 96-well plate using the Multiskan™ FC Microplate Photometer (Thermo Fisher Scientific). Typically, for tps1Δ rescue experiments (FIG. 2b-e; FIG. 4a), cells were (pre)grown in Complete Synthetic medium containing 2% galactose.
Compounds were always added 10 min prior to glucose addition to ensure maximal interaction between the cells and compounds. Cells originating from the preculture were harvested, washed in medium without sugar, after which they were resuspended to an OD of 0.1 in 200 μL of the appropriate medium. At least three technical replicates were included per condition. OD595 was measured at 30° C. every 30 min with a 10-min shaking interval.

| Structure (SMILES) | Selected from primary screen for growth inhibition of A549 cells at 50 μM [1] | Rescue of the tps1Δ strain on 2.5 mM glucose at 100 μM (tps1Δ cells) | Selected for having an IC50 ratio (10 mM glucose: 1 mM glucose) of A549 growth higher than WBC-A [1] |
| --- | --- | --- | --- |
| Cc1nc2scc(-c3cccs3)c2c(=O)[nH]1 [48C] | No | No | – |
| c1csc(-c2csc3nc(CN4CCOCC4)nc(Sc4nnc[nH]4)c23)c1 [55A] | No | Yes | – |
| CC(C)Sc1nc(SCCN2CCOCC2)c2c3c(sc2n1)COC(C)(C)C3 [80C] | No | No | – |
| Cc1nc(N2CCCC(c3nncn3C)C2)c2c(-c3cccs3)csc2n1 (centres unmarked) [38A] | No | No | – |
| Cc1ccc(-c2csc3ncnc(SCCN4CCOCC4)c23)cc1 [9C] | Yes | No | Lower IC50 ratio |
| Cc1ccc(-c2csc3ncnc(Sc4ncccn4)c23)cc1 [50A] | No | No | – |
| Cc1nc(SCC(=O)N2CC(C)OC(C)C2)c2c(-c3cccs3)csc2n1 (centres unmarked) [5B] | No | Yes | – |
| Cc1nc(SCC(=O)c2ccc(NC(=O)CC(C)C)cc2)c2c(-c3cccs3)csc2n1 [38B] | No | No | – |
| Cc1nc(SCC(N)=O)c2c(-c3cccs3)csc2n1 [14A] | No | Yes | – |
| Cc1ccc(-c2csc3ncnc(Sc4nc(C5CCCCC5)n(-c5ccccc5)n4)c23)cc1 [1A] | No | No | – |
| Cc1nc(N2CCN(CCO)CC2)c2c(-c3cccs3)csc2n1 [25B] | No | No | – |
| CC1CN(C(=O)CSc2ncnc3scc(-c4ccc(F)cc4)c23)CCO1 (centres unmarked) [37C] | No | No | – |
| Cc1sc2nc(-c3cccs3)nc(Sc3nnc(C)n3C)c2c1C [16A] | No | No | – |
| CCn1c(Sc2nc(C)nc3scc(-c4cccs4)c23)n[nH]c1=O [51A] | Yes | No | Lower IC50 ratio |
| CC(Sc1nnc2n1CCCCC2)c1nc2scc(-c3cccs3)c2c(=O)[nH]1 (centres unmarked) [6A] | No | No | – |
| Cn1ccnc1Sc1nc(CN2CCOCC2)nc2scc(-c3cccs3)c12 [3C] | No | No | – |
| Cc1nc(SCC(=O)N(C)CCC#N)c2c(-c3cccs3)csc2n1 [7B] | No | Yes | – |
| CN(Cc1nnc2n1CCCCC2)c1ncnc2sc(-c3ccccc3)cc12 [34A] | No | No | – |
| Cc1nc(SCC(=O)N2CCC(C)Sc3ccccc32)c2c(-c3cccs3)csc2n1 (centres unmarked) [43B] | No | No | – |

| Structure (SMILES) | Selected from primary screen for growth inhibition of A549 cells at 50 μM [1] | Rescue of the tps1Δ strain on 2.5 mM glucose at 100 μM (tps1Δ cells) | Selected for having an IC50 ratio (10 mM glucose: 1 mM glucose) of A549 growth higher than WBC-A [1] |
| --- | --- | --- | --- |
| Cc1nc(SCC(=O)Nc2ccccc2C#N)c2c(-c3cccs3)csc2n1 [19B] | No | No | – |
| c1ccc(-c2cc3c(N4CCCC4c4nnc5n4CCCCC5)ncnc3s2)cc1 (centres unmarked) [22A] | No | No | – |
| Cc1cc(NC(=O)CSc2nnc(C)c3cnn(-c4ccccc4)c23)no1 [72C] | No | No | – |
| CCn1c(CCC(N)=O)nnc1Sc1nc(C)nc2scc(-c3cccs3)c12 [16C] | Yes | Yes | Lower IC50 ratio |
| COc1cccc(NC(=O)CSc2ncnc3sc(C)c(-c4ccccc4)c23)c1 [12B] | Yes | No | Lower IC50 ratio |
| Cc1sc2nc(CN3CCOCC3)nc(Sc3nnc4n3CCCCC4)c2c1C [28A] | No | No | – |
| Cc1nc(SC(C)C(=O)NC(C)C)c2c(-c3cccs3)csc2n1 (centres unmarked) [33B] | Yes | No | Lower IC50 ratio |
| Cc1nc(SCC(=O)NC(N)=O)c2c(-c3cccs3)csc2n1 [6B] | Yes | Yes | Lower IC50 ratio |
| Cc1nc(SCC(N)=O)c2c3c(sc2n1)CCC3 [49C] | No | No | – |
| Cc1nc(Sc2nnc[nH]2)c2cc(-c3ccccc3)sc2n1 [59A] | No | No | – |
| COc1ccc(-c2csc3ncnc(Sc4nnc(-c5cccc(C)c5)n4CC(N)=O)c23)cc1 [21A] | Yes | No | Lower IC50 ratio |
| c1csc(-c2csc3nc(CN4CCOCC4)nc(Sc4ccncc4)c23)c1 [40C] | Yes | No | Lower IC50 ratio |
| Cc1nc(Sc2cccc(C(F)(F)F)c2)c2c(-c3cccs3)csc2n1 [25C] | Yes | No | Lower IC50 ratio |
| Cc1nc(SCCN2CCOCC2)c2cc(-c3ccccc3)sc2n1 [41C] | Yes | No | Lower IC50 ratio |
| COC(=O)CSc1nnc(C(C)C)c2cnn(-c3ccc(C)cc3)c12 [76C] | Yes | No | Lower IC50 ratio |
| CCn1nnnc1Sc1nc(CN2CCOCC2)nc2scc(-c3cccs3)c12 [8C] | Yes | No | Lower IC50 ratio |
| Cc1cc(C)n2nc(Sc3nc(C)nc4scc(-c5cccs5)c34)nc2n1 [3A] | No | No | – |
| Cc1nc(Sc2nnc3n2CCCCC3)c2c(-c3cccs3)csc2n1 [A] | Yes | Yes | – |
